Converted amounts (≈) assume the structure as drawn. Read-outs that look alike come from different tables or passages of the source. Marks after values point to notes of the source that are not given here.
Experiments:
S. aureus biofilms = conditions: cited from earlier work; for effect on the established S. aureus biofilms: high concentrations: oxacillin 400, vancomycin 800, clindamycin 800 (printed ag/ml, tag/ml), 24 h
S. aureus strains = test: PlySs2 and antibiotic MIC, broth microdilution, 80% growth inhibition (CLSI M07-A9); type: cell-based; conditions: for MIC90: Staphylococcus aureus
biofilms of BAA-42 MRSA = test: Biofilm eradication in 24-well plates, crystal violet staining; type: cell-based, S. aureus; conditions: for change in biofilm, visually: 1000 ug/ml (1000×MIC), 4 hours or 6 hours; for biofilm clearance: 1000×MIC, 24 hours
[1] = system: MRSA biofilms grown on catheters (strain ATCC BAA-42); test: Catheter biofilm residual CFU, BacTiter-Glo luciferase estimate
[2] = system: MRSA biofilms grown on catheters (strain ATCC BAA-42); test: Catheter biofilm eradication in vitro, methylene blue staining; conditions: 1000×MIC, 24 hours
[3] = system: methicillin resistant S. aureus MRSA strain ATCC BAA-42; test: MIC by broth microdilution (CLSI M07-A9) against strain ATCC BAA-42; type: cell-based; conditions: ATCC BAA-42
[4] = system: ATCC BAA-42 MRSA biofilms; test: ClyS activity on biofilm in polystyrene plates, crystal violet staining; type: cell-based, S. aureus; conditions: 24 hours

For CN[C@H](CC(C)C)C(=O)N[C@H]1C(=O)N[C@@H](CC(N)=O)C(=O)N[C@H]2C(=O)N[C@H]3C(=O)N[C@H](C(=O)N[C@H](C(=O)O)c4cc(O)cc(O)c4-c4cc3ccc4O)[C@H](O)c3ccc(c(Cl)c3)Oc3cc2cc(c3O[C@@H]2O[C@H](CO)[C@@H](O)[C@H](O)[C@H]2O[C@H]2C[C@](C)(N)[C@H](O)[C@H](C)O2)Oc2ccc(cc2Cl)[C@H]1O [Vancomycin, vancomycin], the “effect on the established S. aureus biofilms” value (S. aureus biofilms) is listed as “no effect”, the MIC90 (S. aureus strains) is listed as 0.7 µM (≈ 1.01 µg/mL) and the MIC90 (S. aureus strains; MRSA) is listed as 0.7 µM (≈ 1.01 µg/mL). It also gave an MIC90 (S. aureus strains; MSSA) of 0.7 µM (≈ 1.01 µg/mL), an MIC90 (S. aureus strains; VISA) of 2.7 µM (≈ 3.91 µg/mL) and an MIC90 (S. aureus strains; VRSA) of over 10.6 µM. For the same molecule, the “change in biofilm, visually” value (biofilms of BAA-42 MRSA) was “No change” and the biofilm clearance (biofilms of BAA-42 MRSA) was “no biofilm clearance”.

In the case of Cc1onc(-c2ccccc2)c1C(=O)N[C@@H]1C(=O)N2[C@@H]1SC(C)(C)[C@@H]2C(=O)O [Oxacillin, oxacillin], the “effect on the established S. aureus biofilms” value (S. aureus biofilms) is listed as “no effect”, the MIC50/90 (S. aureus strains; MRSA (n = 45)) is listed as >4* and the “MIC50/90 [uM]” value (S. aureus strains; MRSA (n = 45)) is listed as over 10.0 µM.

For CC(=O)NC[C@H]1CN(c2ccc(N3CCOCC3)c(F)c2)C(=O)O1 [Linezolid, linezolid], the MIC50/90 (S. aureus strains; DRSA (n = 8)) was 2, the “MIC50/90 [uM]” value (S. aureus strains; DRSA (n = 8)) was 5.7 µM (≈ 1.92 µg/mL) and the MIC50/90 (S. aureus strains; LRSA (n = 5)) was over 64. For the same molecule, the “MIC50/90 [uM]” value (S. aureus strains; LRSA (n = 5)) was over 183 µM, the MIC50/90 (S. aureus strains; MRSA (n = 45)) was 2 and the “MIC50/90 [uM]” value (S. aureus strains; MRSA (n = 45)) was 5.7 µM (≈ 1.92 µg/mL). The MIC50/90 (S. aureus strains; MSSA (n-28)) was 2, the “MIC50/90 [uM]” value (S. aureus strains; MSSA (n-28)) was 5.7 µM (≈ 1.92 µg/mL) and the MIC50/90 (S. aureus strains; VISA (n = 10)) was 2. The “MIC50/90 [uM]” value (S. aureus strains; VISA (n = 10)) was 5.7 µM (≈ 1.92 µg/mL), the MIC50/90 (S. aureus strains; VRSA (n = 14)) was 2 and the “MIC50/90 [uM]” value (S. aureus strains; VRSA (n = 14)) was 5.7 µM (≈ 1.92 µg/mL). For the same molecule, the “change in biofilm, visually” value (biofilms of BAA-42 MRSA) was “No change” and the biofilm clearance (biofilms of BAA-42 MRSA) was “no biofilm clearance”.

For “Lysostaphin: gene product of Staphylococcus simulans degrading the polyglycine crosslinks of the S. aureus cell wall”, the “effect on S. aureus biofilms in vitro on plastic and glass surfaces” value (S. aureus biofilms; lysostaphin-sensitive S. aureus) is listed as “disrupted the extracellular matrix”.

With CCCCCCCCCC(=O)N[C@@H](Cc1c[nH]c2ccccc12)C(=O)N[C@H](CC(N)=O)C(=O)N[C@@H](CC(=O)O)C(=O)N[C@@H]1C(=O)NCC(=O)N[C@@H](CCCN)C(=O)N[C@@H](CC(=O)O)C(=O)N[C@H](C)C(=O)N[C@@H](CC(=O)O)C(=O)NCC(=O)N[C@H](CO)C(=O)N[C@@H]([C@H](C)CC(=O)O)C(=O)N[C@@H](CC(=O)c2ccccc2N)C(=O)O[C@@H]1C [Daptomycin, daptomycin] the CFU reduction ([1]; 1×MIC, 24 hours) was “no CFU reduction”, the “CFUs remaining in catheter biofilm” value ([1]; 1000× MIC, 24 hours, from 100 million) was 1 million and the CFU reduction ([1]; 1000×MIC, 24 hours) was “two log reduction”. The “removal of biofilm bacteria” value ([1]; up to concentrations of 5000×MIC) was “completely ineffective”, the “biofilm clearance from the catheter” value [2] was “did not remove significant biofilm” and the MIC90 (S. aureus strains; DRSA (n = 8), read-out: MIC90) was 9.9 µM (≈ 16 µg/mL). For the same molecule, the MIC90 (S. aureus strains; LRSA (n = 5), read-out: MIC90) was 0.6 µM (≈ 0.972 µg/mL), the MIC90 (S. aureus strains; MRSA, MRSA (n = 45), read-out: MIC90) was 0.6 µM (≈ 0.972 µg/mL) and the MIC90 (S. aureus strains; MSSA, MSSA (n-28), read-out: MIC90) was 0.6 µM (≈ 0.972 µg/mL). The MIC90 (S. aureus strains; VISA, VISA (n = 10), read-out: MIC90) was 4.9 µM (≈ 7.94 µg/mL), the MIC90 (S. aureus strains; VRSA, VRSA (n = 14), read-out: MIC90) was 0.6 µM (≈ 0.972 µg/mL) and the “change in biofilm, visually” value (biofilms of BAA-42 MRSA) was “No change”. The biofilm clearance (biofilms of BAA-42 MRSA) was “no biofilm clearance” and the biofilm dissolution (biofilms of BAA-42 MRSA; concentrations up to 10×MIC, up to 24 hours) was “no dissolution”.

B1: ClyS: chimeric lysin with activity against Staphylococci, detailed in WO 2010/002959; SEQ ID NO: 5 (protein, listed as Staphylococcus aureus)
chain: METLKQAESYIKSKVNTGTDFDGLYGYQCMDLAVDYIYHVTDGKIRMWGNAKDAINNSFGGTATVYKNYPAFRPKYGDVVVWTTGNFATYGHIAIVTNPDPYGDLQYVTVLEQNWNGNGIYKTELATIRTHDYTGITHFIRPNFATESSVKKKDTKKKPKPSNRDGLNKDKIVYDRTNINYNMVLQGKSASKITVGSKAPYNLKWSKGAYFNAKIDGLGATSATRYGDNRTNYRFDVGQAVYAPGTLIYVFEIIDGWCRIYWNNHNEWIWHERLIVKEVF
For B1, the “MIC of the ClyS lysin” value [3] was 32 µg/mL, the biofilm dispersal ([4]; 0.032 μg/ml) was “somewhat” and the biofilm dispersal ([4]; 0.32 μg/ml) was “Reduction in stained biofilm”. The biofilm dispersal ([4]; 3.2 μg/ml (0.1× MIC)) was “effectively disperses” and the biofilm dispersal ([4]; 32 μg/ml (1×MIC)) was “effectively disperses”.

— patent publication US11524046B2, “Biofilm prevention, disruption and treatment with bacteriophage lysin” (priority 2012, dated 2022)
